In US20240025887A1, “THIENYL AND CYCLOALKYL AMINOPYRIMIDINE COMPOUNDS AS INHIBITORS OF NUAK KINASES, COMPOSITIONS AND USES THEREOF” (Ontario Institute for Cancer Research (OICR), priority 2021, published 2024) one finds IC50 data, which are given here for 15 compounds.

Structures are written as SMILES.

Holding throughout (type): biochemical
In one assay the target is T1, NUAK1 (Homo sapiens, UniProt O60285).
T1 sequence (O60285 1-661): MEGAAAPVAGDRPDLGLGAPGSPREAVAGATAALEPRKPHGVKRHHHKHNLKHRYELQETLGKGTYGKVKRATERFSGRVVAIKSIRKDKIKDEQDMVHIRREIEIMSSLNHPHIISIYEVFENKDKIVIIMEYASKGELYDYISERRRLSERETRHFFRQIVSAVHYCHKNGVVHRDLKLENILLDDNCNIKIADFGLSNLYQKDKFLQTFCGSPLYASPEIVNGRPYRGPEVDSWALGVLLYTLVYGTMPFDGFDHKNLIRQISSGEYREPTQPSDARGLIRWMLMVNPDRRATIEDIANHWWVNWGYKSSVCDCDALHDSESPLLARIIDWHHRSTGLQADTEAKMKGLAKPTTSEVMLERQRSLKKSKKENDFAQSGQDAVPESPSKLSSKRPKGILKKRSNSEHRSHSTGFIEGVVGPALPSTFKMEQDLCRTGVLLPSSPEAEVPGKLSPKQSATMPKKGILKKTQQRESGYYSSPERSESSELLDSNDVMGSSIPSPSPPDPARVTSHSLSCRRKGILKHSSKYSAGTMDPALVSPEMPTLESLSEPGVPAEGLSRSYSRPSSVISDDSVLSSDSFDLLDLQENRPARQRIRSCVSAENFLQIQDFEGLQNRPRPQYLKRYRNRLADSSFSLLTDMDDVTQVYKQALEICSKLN
Briefly: NUAK1 counter screen. The procedure:
(§1) To identify small molecule NUAK inhibitors, a biochemical NUAK2 enzymatic assay was outsourced to Eurofins. This assay was done radiometrically using full-length, recombinant enzyme. NUAK2 (h) was incubated with 8 mM MOPS pH 7.0, 0.2 mM EDTA, 300 μM […], 10 mM magnesium acetate and […] (specific activity and concentration as required). The reaction was initiated by the addition of the Mg/ATP mix. After incubation for 40 minutes at room temperature, the reaction was stopped by the addition of phosphoric acid to a concentration of 0.5%. 10 μL of the reaction was then spotted onto a P30 filter mat and washed four times for 4 minutes in 0.425% phosphoric acid and once in methanol prior to drying and scintillation counting. Compounds were routinely counter screened against Aurora A and NUAK1. The results are shown in Table 1 where IC50s are reported the following ranges: A: 0.1-10 nM; B: 11-100 nM; C: 101-1000 nM; D: >1000 nM for the compounds of Formula I)
For orientation: A counterscreen serves to expose hits that act by an unwanted route or on another target.

Another assay concerns the target T2, NUAK2 (h) (Homo sapiens, UniProt Q9H093).
T2 construct: This assay was done radiometrically using full-length, recombinant enzyme; purchased Eurofins
T2 sequence (Q9H093 1-628): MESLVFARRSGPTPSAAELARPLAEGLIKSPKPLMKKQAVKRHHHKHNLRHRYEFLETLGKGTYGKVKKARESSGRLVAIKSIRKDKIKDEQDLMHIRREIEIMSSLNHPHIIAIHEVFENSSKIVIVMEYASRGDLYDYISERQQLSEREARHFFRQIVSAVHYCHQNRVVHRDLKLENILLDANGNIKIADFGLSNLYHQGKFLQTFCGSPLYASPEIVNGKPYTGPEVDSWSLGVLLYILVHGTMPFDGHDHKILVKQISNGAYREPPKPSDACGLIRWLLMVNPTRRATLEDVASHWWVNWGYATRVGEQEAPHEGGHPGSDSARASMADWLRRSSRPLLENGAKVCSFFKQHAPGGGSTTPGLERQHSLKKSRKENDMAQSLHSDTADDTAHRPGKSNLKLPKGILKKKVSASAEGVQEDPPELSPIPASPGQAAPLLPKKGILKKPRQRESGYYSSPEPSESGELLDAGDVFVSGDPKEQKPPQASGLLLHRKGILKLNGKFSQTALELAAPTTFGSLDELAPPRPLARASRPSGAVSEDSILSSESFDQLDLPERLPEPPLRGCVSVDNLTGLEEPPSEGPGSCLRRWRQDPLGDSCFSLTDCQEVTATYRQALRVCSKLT
The assay can be described thus: NUAK2 enzymatic assay (radiometric, Eurofins). The note with it: radiometric, full-length recombinant enzyme. The procedure: as §1

In a further assay the target is T3, Aurora A (Homo sapiens, UniProt O14965).
T3 sequence (O14965 1-403): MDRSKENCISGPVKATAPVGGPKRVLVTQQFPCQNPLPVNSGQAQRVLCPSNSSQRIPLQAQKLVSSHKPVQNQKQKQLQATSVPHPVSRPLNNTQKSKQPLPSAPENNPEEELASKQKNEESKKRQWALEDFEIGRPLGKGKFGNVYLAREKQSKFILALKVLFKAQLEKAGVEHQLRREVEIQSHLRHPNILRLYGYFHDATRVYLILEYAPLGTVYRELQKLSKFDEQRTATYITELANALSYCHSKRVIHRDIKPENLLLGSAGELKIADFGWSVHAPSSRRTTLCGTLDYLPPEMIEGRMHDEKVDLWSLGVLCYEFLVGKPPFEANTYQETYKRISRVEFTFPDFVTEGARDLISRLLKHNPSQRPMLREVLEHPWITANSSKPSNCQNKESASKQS
The assay can be described thus: Aurora A counter screen. The note with it: read-out: AUR-A (IC50). The procedure: as §1

One may read the IC50 as the concentration that inhibits the measured activity by half. As for `C[C@H]1CN(C)CCN1C1CCN(c2ccc(Nc3ncc(Cl)c(Nc4ccsc4C(N)=O)n3)c(OC(F)F)c2)CC1` [Compound I-70, (S)-3-((5-chloro-2-((2-(difluoromethoxy)-4-(4-(2,4-dimethylpiperazin-1-yl)piperidin-1-yl)phenyl)amino)pyrimidin-4-yl)amino)thiophene-2-carboxamide], the IC50 at NUAK1, on NUAK2 (h) and at Aurora A was 11 to 100 nM each time.
For `Cc1csc(Nc2nc(Nc3ccc(N4CCN(C)CC4)cc3OC(F)F)ncc2Cl)c1C(N)=O` [Compound I-15, 2-((5-chloro-2-((2-(difluoromethoxy)-4-(4-methylpiperazin-1-yl)phenyl)amino)pyrimidin-4-yl)amino)-4-methylthiophene-3-carboxamide], the half-maximal inhibitory concentration (IC50) lay in the range of 11 to 100 nM against NUAK1, 11 to 100 nM at NUAK2 (h) and 101 to 1000 nM on Aurora A.
With `CN1CCN(C2CCN(c3ccc(Nc4ncc(Cl)c(N[C@@H]5CCC[C@@H]5C(N)=O)n4)c(OC(F)F)c3)CC2)CC1` [Compound I-83, (1S,2R)-2-((5-chloro-2-((2-(difluoromethoxy)-4-(4-(4-methylpiperazin-1-yl)piperidin-1-yl)phenyl)amino)pyrimidin-4-yl)amino)cyclopentane-1-carboxamide], the IC50 on NUAK1 lay in the range of 11 to 100 nM; on NUAK2 (h), 11 to 100 nM; on Aurora A, 101 to 1000 nM.
As to `C[C@@H]1CN(c2ccc(Nc3ncc(Cl)c(Nc4sccc4C(N)=O)n3)c(OC(F)F)c2)C[C@H](C)N1C` [Compound I-11, 2-((5-chloro-2-((2-(difluoromethoxy)-4-((3R,5S)-3,4,5-trimethylpiperazin-1-yl)phenyl)amino)pyrimidin-4-yl)amino)thiophene-3-carboxamide], the IC50 fell in the range of 11 to 100 nM on NUAK1, 0.1 to 10 nM on NUAK2 (h) and 101 to 1000 nM at Aurora A.
As for `CCN1CCN(c2ccc(Nc3ncc(Cl)c(Nc4ccsc4C(N)=O)n3)c(OC(F)F)c2)CC1` [Compound I-5, 3-((5-chloro-2-((2-(difluoromethoxy)-4-(4-ethylpiperazin-1-yl)phenyl)amino)pyrimidin-4-yl)amino)thiophene-2-carboxamide], the concentration for half-maximal inhibition (IC50) at NUAK1 is 11 to 100 nM; on NUAK2 (h) it was 11 to 100 nM; at Aurora A it was greater than 1000 nM.
Regarding `CN1CCN(C2CCN(c3ccc(Nc4ncc(Cl)c(Nc5ccsc5C(N)=O)n4)c(OC(F)F)c3F)CC2)CC1` [Compound I-40, 3-((5-chloro-2-((2-(difluoromethoxy)-3-fluoro-4-(4-(4-methylpiperazin-1-yl)piperidin-1-yl)phenyl)amino)pyrimidin-4-yl)amino)thiophene-2-carboxamide], the results for the IC50 on NUAK1, at NUAK2 (h) and on Aurora A were 101 to 1000 nM, 101 to 1000 nM and greater than 1000 nM, respectively.
For the compound `Cc1cnc(Nc2ccc(N3CCN(C)CC3)cc2OC(F)F)nc1Nc1ccsc1C(N)=O` [Compound I-4, 3-((2-((2-(difluoromethoxy)-4-(4-methylpiperazin-1-yl)phenyl)amino)-5-methylpyrimidin-4-yl)amino)thiophene-2-carboxamide], the figures for the concentration for half-maximal inhibition (IC50) against NUAK1, at NUAK2 (h) and at Aurora A were 11 to 100 nM, 11 to 100 nM and greater than 1000 nM, respectively.
In the case of `CCN1CCN(c2ccc(Nc3ncc(Cl)c(Nc4cscc4C(N)=O)n3)c(OC(F)F)c2)CC1` [Compound I-14, 4-((5-chloro-2-((2-(difluoromethoxy)-4-(4-ethylpiperazin-1-yl)phenyl)amino)pyrimidin-4-yl)amino)thiophene-3-carboxamide], the IC50 against NUAK1 lay in the range of 0.1 to 10 nM; at NUAK2 (h) it was 0.1 to 10 nM; on Aurora A, 101 to 1000 nM.
In the case of `CC(C)(C)N1CCN(c2ccc(Nc3ncc(Cl)c(Nc4ccsc4C(N)=O)n3)c(OC(F)F)c2)CC1` [Compound I-20, 3-((2-((4-(4-(tert-butyl)piperazin-1-yl)-2-(difluoromethoxy)phenyl)amino)-5-chloropyrimidin-4-yl)amino)thiophene-2-carboxamide], the 50% inhibitory concentration (IC50) against NUAK1 was in the range of 0.1 to 10 nM; at NUAK2 (h), 0.1 to 10 nM; at Aurora A, 101 to 1000 nM.
In the case of `CN1CCCN(C2CCN(c3ccc(Nc4ncc(Cl)c(Nc5ccsc5C(N)=O)n4)c(OC(F)F)c3)CC2)CC1` [Compound I-72, 3-((5-chloro-2-((2-(difluoromethoxy)-4-(4-(4-methyl-1,4-diazepan-1-yl)piperidin-1-yl)phenyl)amino)pyrimidin-4-yl)amino)thiophene-2-carboxamide], the half-inhibitory concentration (IC50) against NUAK1 was in the range of 11 to 100 nM; at NUAK2 (h), 11 to 100 nM; on Aurora A, 101 to 1000 nM.
Turning to `CN1CCc2cc(OC(F)F)c(Nc3ncc(Cl)c(Nc4ccsc4C(N)=O)n3)cc2C1` [Compound I-26, 3-((5-chloro-2-((6-(difluoromethoxy)-2-methyl-1,2,3,4-tetrahydroisoquinolin-7-yl)amino)pyrimidin-4-yl)amino)thiophene-2-carboxamide], the half-maximal inhibitory concentration (IC50) on NUAK1 lay in the range of 101 to 1000 nM; on NUAK2 (h), 11 to 100 nM; on Aurora A, 101 to 1000 nM.
In the case of `CN1CCC(c2ccc(Nc3ncc(Cl)c(Nc4ccsc4C(N)=O)n3)c(OC(F)F)c2)CC1` [Compound I-25, 3-((5-chloro-2-((2-(difluoromethoxy)-4-(1-methylpiperidin-4-yl)phenyl)amino)pyrimidin-4-yl)amino)thiophene-2-carboxamide], the IC50 lay within 11 to 100 nM on NUAK1, 11 to 100 nM on NUAK2 (h) and 101 to 1000 nM at Aurora A.
Regarding `CN1CCN(c2ccc(Nc3ncc(Cl)c(N[C@@H]4CCC[C@@H]4C(N)=O)n3)c(OC(F)F)c2)CC1` [Compound I-86, (1S,2R)-2-((5-chloro-2-((2-(difluoromethoxy)-4-(4-methylpiperazin-1-yl)phenyl)amino)pyrimidin-4-yl)amino)cyclopentane-1-carboxamide], the IC50 at NUAK1 is 11 to 100 nM; on NUAK2 (h), 11 to 100 nM; at Aurora A, greater than 1000 nM.
With `CN1CCN(c2ccc(Nc3ncc(F)c(Nc4ccsc4C(N)=O)n3)c(OC(F)F)c2)CC1` [Compound I-37, 3-((2-((2-(difluoromethoxy)-4-(4-methylpiperazin-1-yl)phenyl)amino)-5-fluoropyrimidin-4-yl)amino)thiophene-2-carboxamide], the half-maximal inhibitory concentration (IC50) on NUAK1 lay in the range of 11 to 100 nM; on NUAK2 (h), 11 to 100 nM; on Aurora A, 101 to 1000 nM.
As for `C[C@@H]1CN(C2CCN(c3ccc(Nc4ncc(Cl)c(Nc5ccsc5C(N)=O)n4)c(OC(F)F)c3)CC2)C[C@H](C)N1C` [Compound I-64, 3-((5-chloro-2-((2-(difluoromethoxy)-4-(4-((3R,5S)-3,4,5-trimethylpiperazin-1-yl)piperidin-1-yl)phenyl)amino)pyrimidin-4-yl)amino)thiophene-2-carboxamide], the half-maximal inhibitory concentration (IC50) lay within 11 to 100 nM against NUAK1, 0.1 to 10 nM on NUAK2 (h) and 101 to 1000 nM at Aurora A.
